The values below come from paper PMC5766581, “NF-κB inducing kinase is a therapeutic target for systemic lupus erythematosus” (Nature Communications, 2018).

The test system of experiment [1] is 222 recombinant human kinases. The experiment in a line: SelectScreen kinase panel, overall selectivity. The class given is biochemical. To be noted: 1 μM. As to the method: The ability of NIK to catalyze the hydrolysis of adenosine-5′-triphosphate (ATP) was monitored using the Transcreener ADP (adenosine-5′-diphosphate) assay (Bell Brook Labs, Fitchburg, WI). Purified human NIK kinase domain (a.a. 340–694) (0.5 nM) or mouse NIK kinase domain (a.a. 329–675) (1 nM) derived from a baculovirus-infected insect cell expression system was incubated with test compounds for 0.5–2 h in 50 mM HEPES buffer (pH 7.2) containing 10 mM MgCl2, 2 mM dithiothreitol, 10 μM ATP, 0.01% Triton X-100, 0.1% gamma-globulins from bovine blood, 1% dimethylsulfoxide (DMSO), 7 μg/mL ADP antibody and 5 nM ADP-MR121 633 tracer. […] The tracer bound to the antibody was displaced by the ADP generated during the NIK reaction, which caused a decrease in fluorescence polarization that was measured by laser excitation at 633 nm with a Fluorescence Correlation Spectroscopy Plus reader (Evotec AG). Equilibrium dissociation constant (Ki) values for NIK inhibitors are calculated from plots of activity vs. inhibitor concentration using Morrison’s quadratic equation that accounts for the potential of tight binding, and by also applying the conversion factor that accounted for competitive inhibition and the concentration of substrate used in the assay relative to its Michaelis constant (Km). The Ki values with hPKD1 (PKCμ) were determined using the same assay conditions as for NIK. […]

The subject of the next experiment is human B cells. The experiment in a line: Human B cell anti-IgM proliferation assay. To be noted: Homo sapiens, B-cell; thymidine incorporation, day four. The class given is cell-based. A general note: Dividing cells build labelled thymidine or BrdU into new DNA.
The subject of experiment [2] is nuclear p52 (non-canonical NF-κB signaling). Kind of experiment: High content nuclear p52 imaging, anti-LTβR-stimulated HeLa cells. It counts as cell-based, human. To be noted: Homo sapiens, anti-LTβR induced, mean ± SD. How it is done: The HeLa cell line was used to define the cellular selectivity of NIK inhibitors toward inhibition of classical vs. non-classical NF-κB signaling using high content cellular imaging assays. For the nuclear translocation assay p52 (non-canonical NF-κB signaling), HeLa cells were treated with different concentrations of compounds previously diluted in DMSO (final [DMSO] = 0.2% in all wells) in DMEM medium (10% FBS, 2 mM Glutamine) and then stimulated with 300 ng/mL of an anti-lymphotoxin beta receptor antibody for 4.5 h. In the REL-A nuclear translocation assay, HeLa cells were incubated with compounds for 4 h 50 min before stimulating them with 2 ng/mL TNF (R&D Systems) for 10 min. Cells were fixed with 4% paraformaldehyde, permeabilized by adding 0.1% Triton X-100 in phosphate buffered saline, and then are incubated with either 2 μg/mL anti-p52 antibody or 400 ng/mL anti-REL-A (p65) antibody. Finally, the cells are incubated with an Alexa488-labeled secondary antibody (Invitrogen) and DRAQ5 DNA stain (Biostatus). Imaging was carried out using an Opera reader (Perkin Elmer) and data were analyzed with Acapella software (Perkin Elmer). The p52 or REL-A translocation into the nucleus is quantified by the ratio of the nuclear to cytoplasmic signal intensity.

In the next experiment the target is T1, PhK_gamma2 (Homo sapiens, UniProt P15735).
T1 construct: purchased Invitrogen / ThermoFisher SelectScreen
Kind of experiment: SelectScreen kinase panel. The class given is biochemical.

The subject of experiment [3] is p52 processing in mouse RPTEC. The experiment in a line: TWEAK-induced p52 processing western blot in RPTEC. The following applies: murine RPTEC; 3 μM; 4, 8 and 24 h. The class given is cell-based. As to the method:
(§1) p52/p100 and β-actin were monitored by western blot as described previously. […] Mouse and human RPTEC cells were stimulated with recombinant mouse or human TWEAK (100 ng/mL, R&D Systems). Primary B cells were isolated by negative selection (Miltenyi) from either mouse spleen or human whole blood. Human primary B cells were stimulated with either rhCD40L (10 μg/mL) or rhBAFF (400 ng/mL) (R&D Systems). Mouse primary B cells were stimulated with either anti-CD40 (10 μg/mL, BD Biosciences) or rmBAFF (400 ng/mL). […] HeLa cells (ATCC) were stimulated for 8 h with anti-LTβR agonist antibody and cytoplasmic and nuclear extracts were generated using kits purchase from Thermo Scientific and approximately […] of each extract was monitored for p52/p100, phospho-RelA, RelA, or β-Actin, Histone H3, or Lamin B1 controls. Uncropped western blots, as required by journal policies, are provided in Supplementary Fig. 13 and 14.

Experiment [4] deals with p52 processing in human RPTEC. Kind of experiment: TWEAK-induced p52 processing western blot in RPTEC. It counts as cell-based. The following applies: 1 μM, 4, 8 and 24 h. As to the method: as §1
The target of a further experiment is T2, TSSK1 (Homo sapiens, UniProt Q9BXA7).
T2 construct: purchased Invitrogen / ThermoFisher SelectScreen
The experiment in a line: SelectScreen kinase panel. The class given is biochemical. As to the method: (§2) The ability of NIK to catalyze the hydrolysis of adenosine-5′-triphosphate (ATP) was monitored using the Transcreener ADP (adenosine-5′-diphosphate) assay (Bell Brook Labs, Fitchburg, WI). Purified human NIK kinase domain (a.a. 340–694) (0.5 nM) or mouse NIK kinase domain (a.a. 329–675) (1 nM) derived from a baculovirus-infected insect cell expression system was incubated with test compounds for 0.5–2 h in 50 mM HEPES buffer (pH 7.2) containing 10 mM MgCl2, 2 mM dithiothreitol, 10 μM ATP, 0.01% Triton X-100, 0.1% gamma-globulins from bovine blood, 1% dimethylsulfoxide (DMSO), 7 μg/mL ADP antibody and 5 nM ADP-MR121 633 tracer. Reactions were quenched by the addition of 20 mM EDTA and 0.01% Brij 35. The tracer bound to the antibody was displaced by the ADP generated during the NIK reaction, which caused a decrease in fluorescence polarization that was measured by laser excitation at 633 nm with a Fluorescence Correlation Spectroscopy Plus reader (Evotec AG). Equilibrium dissociation constant (Ki) values for NIK inhibitors are calculated from plots of activity vs. inhibitor concentration using Morrison’s quadratic equation that accounts for the potential of tight binding, and by also applying the conversion factor that accounted for competitive inhibition and the concentration of substrate used in the assay relative to its Michaelis constant (Km). The Ki values with hPKD1 (PKCμ) were determined using the same assay conditions as for NIK. Ki measurements for hKHS1 and hLRRK2, as well as broad kinase selectivity profiling for SMI1, were carried out by Invitrogen using their SelectScreen kinase assay panel (ThermoFisher Scientific, Madison, WI). The vendor offered two types of kinase activity assays, a peptide phosphorylation assay (Z′-LYTE) and an ADP quantitation assay (Adapta), as well as one type of kinase ATP site competitive binding assay (LanthaScreen). See vendor web site for technology and protocol details for each specific kinase assay.
(§3) The average % Inhibition of each kinase is reported (Supplementary Table 1).

The next experiment addresses T3, Frk (Homo sapiens, UniProt P42685).
T3 construct: purchased Invitrogen / ThermoFisher SelectScreen
Kind of experiment: SelectScreen kinase panel. The class given is biochemical. As to the method:
as §2, §3

The next experiment deals with T4, PKC_eta (Homo sapiens, UniProt P24723).
T4 construct: purchased Invitrogen / ThermoFisher SelectScreen
Kind of experiment: SelectScreen kinase panel. The class given is biochemical. How it is done:
as §2, §3

A further experiment concerns the target T5, p70S6K (Homo sapiens, UniProt P23443).
T5 construct: purchased Invitrogen / ThermoFisher SelectScreen
The experiment in a line: SelectScreen kinase panel. The class given is biochemical. As to the method:
as §2, §3

A further experiment addresses T6, DYRK4 (Homo sapiens, UniProt Q9NR20).
T6 construct: purchased Invitrogen / ThermoFisher SelectScreen
Kind of experiment: SelectScreen kinase panel. It counts as biochemical. How it is done:
as §2, §3

The target of another experiment is T7, CK1_alpha1 (Homo sapiens, UniProt P48729).
T7 construct: purchased Invitrogen / ThermoFisher SelectScreen
Kind of experiment: SelectScreen kinase panel. The class given is biochemical. As to the method: as §2, §3

For the next experiment, the target named is T8, CaMKII_beta (Homo sapiens, UniProt Q13554).
T8 construct: purchased Invitrogen / ThermoFisher SelectScreen
The experiment in a line: SelectScreen kinase panel. It counts as biochemical. How it is done:
as §2, §3

For a further experiment, the target named is T9, CSK (Homo sapiens, UniProt P41240).
T9 construct: purchased Invitrogen / ThermoFisher SelectScreen
The experiment in a line: SelectScreen kinase panel. The class given is biochemical. As to the method:
as §2, §3

The target in the next experiment is T10, PAK1 (Homo sapiens, UniProt Q13153).
T10 construct: purchased Invitrogen / ThermoFisher SelectScreen
Kind of experiment: SelectScreen kinase panel. It counts as biochemical. As to the method:
as §2, §3

Experiment [5] relates to rhCD40L induced ICOSL expression on human B cells. Kind of experiment: ICOSL expression on human B cell assay. The class given is cell-based. To be noted: B-cell, ICOSL MFI by FACS, mean ± SD, read-out: CD40-induced ICOSL IC50. How it is done:
Human B cells were isolated from whole blood. B cells were enriched by RosetteSep protocol (Stem Cell Technologies), and then isolated using Human B cell isolation kit II (Miltenyi). […] Mean fluorescent intensity (MFI) of CD40L and BAFF induced ICOSL expression was measured by flow cytometry on cells stained with anti-CD20 and anti-ICOSL, using a FACS Calibur instrument (BD). Plots and IC50 measurements were generated using GraphPad Prism Software.
A general note: In flow cytometry, cells or beads pass a laser one at a time.

T3 sequence (P42685 whole entry): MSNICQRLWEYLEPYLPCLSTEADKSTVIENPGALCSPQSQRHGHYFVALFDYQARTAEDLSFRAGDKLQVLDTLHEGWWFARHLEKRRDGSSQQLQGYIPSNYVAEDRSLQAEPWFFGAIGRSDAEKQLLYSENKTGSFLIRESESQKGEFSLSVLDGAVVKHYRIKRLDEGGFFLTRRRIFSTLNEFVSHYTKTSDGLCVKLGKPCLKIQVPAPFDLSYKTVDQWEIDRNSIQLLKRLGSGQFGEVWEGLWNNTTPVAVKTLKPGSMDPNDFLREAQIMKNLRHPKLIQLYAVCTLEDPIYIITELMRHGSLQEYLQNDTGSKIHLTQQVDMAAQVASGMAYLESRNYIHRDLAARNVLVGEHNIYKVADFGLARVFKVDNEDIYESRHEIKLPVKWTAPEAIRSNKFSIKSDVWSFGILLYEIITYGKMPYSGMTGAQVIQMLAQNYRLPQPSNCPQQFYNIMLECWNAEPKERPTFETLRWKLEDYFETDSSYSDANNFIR
T7 sequence (P48729 whole entry): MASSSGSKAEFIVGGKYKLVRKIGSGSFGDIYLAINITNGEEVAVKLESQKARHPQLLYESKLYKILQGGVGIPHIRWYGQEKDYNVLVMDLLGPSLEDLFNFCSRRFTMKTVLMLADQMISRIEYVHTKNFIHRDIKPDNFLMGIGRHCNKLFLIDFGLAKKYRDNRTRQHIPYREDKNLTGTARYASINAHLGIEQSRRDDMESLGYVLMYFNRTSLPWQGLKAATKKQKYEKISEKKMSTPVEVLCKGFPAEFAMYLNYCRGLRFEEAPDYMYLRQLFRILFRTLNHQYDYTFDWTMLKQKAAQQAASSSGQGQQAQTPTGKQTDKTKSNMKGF
T5 sequence (P23443 whole entry): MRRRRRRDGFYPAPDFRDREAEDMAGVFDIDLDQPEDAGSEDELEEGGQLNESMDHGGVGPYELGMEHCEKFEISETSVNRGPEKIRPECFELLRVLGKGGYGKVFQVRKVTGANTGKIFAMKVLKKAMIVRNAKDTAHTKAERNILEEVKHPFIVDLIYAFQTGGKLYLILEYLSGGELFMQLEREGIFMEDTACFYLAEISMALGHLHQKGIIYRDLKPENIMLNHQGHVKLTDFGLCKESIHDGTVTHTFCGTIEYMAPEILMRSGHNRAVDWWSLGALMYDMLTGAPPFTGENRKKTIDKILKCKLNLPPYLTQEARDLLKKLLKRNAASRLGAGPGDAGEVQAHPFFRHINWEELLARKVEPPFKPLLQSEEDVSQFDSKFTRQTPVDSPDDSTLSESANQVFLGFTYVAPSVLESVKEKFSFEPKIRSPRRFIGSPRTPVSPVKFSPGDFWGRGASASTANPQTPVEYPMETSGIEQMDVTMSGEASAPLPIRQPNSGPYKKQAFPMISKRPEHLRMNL
T1 sequence (P15735 whole entry): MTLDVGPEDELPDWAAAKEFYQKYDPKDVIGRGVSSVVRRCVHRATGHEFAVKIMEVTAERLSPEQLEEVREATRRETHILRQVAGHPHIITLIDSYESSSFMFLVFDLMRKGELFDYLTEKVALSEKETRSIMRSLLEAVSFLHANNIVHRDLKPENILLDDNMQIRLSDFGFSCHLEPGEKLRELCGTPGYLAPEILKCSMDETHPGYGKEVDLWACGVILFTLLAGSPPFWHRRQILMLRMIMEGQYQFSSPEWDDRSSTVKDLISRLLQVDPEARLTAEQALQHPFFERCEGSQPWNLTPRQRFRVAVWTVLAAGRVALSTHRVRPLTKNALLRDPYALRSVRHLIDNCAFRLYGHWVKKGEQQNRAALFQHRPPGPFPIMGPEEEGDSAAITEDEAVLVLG
T4 sequence (P24723 whole entry): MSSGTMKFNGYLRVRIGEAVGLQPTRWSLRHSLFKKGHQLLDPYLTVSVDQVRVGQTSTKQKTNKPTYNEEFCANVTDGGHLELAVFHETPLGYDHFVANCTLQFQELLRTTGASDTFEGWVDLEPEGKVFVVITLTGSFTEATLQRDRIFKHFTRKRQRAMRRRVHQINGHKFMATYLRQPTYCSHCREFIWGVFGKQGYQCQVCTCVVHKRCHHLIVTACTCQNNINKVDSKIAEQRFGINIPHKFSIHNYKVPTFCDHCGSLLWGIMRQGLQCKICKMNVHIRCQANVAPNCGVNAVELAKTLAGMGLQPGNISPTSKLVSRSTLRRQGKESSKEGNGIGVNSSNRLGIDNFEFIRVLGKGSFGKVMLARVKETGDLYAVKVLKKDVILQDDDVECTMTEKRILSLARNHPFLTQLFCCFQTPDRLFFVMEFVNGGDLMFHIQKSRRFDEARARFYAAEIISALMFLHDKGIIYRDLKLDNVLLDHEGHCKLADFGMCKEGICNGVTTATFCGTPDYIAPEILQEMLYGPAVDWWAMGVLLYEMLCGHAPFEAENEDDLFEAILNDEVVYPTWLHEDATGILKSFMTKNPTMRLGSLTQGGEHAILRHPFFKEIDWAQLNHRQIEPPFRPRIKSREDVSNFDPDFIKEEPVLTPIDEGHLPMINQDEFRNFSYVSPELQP
T8 sequence (Q13554 whole entry): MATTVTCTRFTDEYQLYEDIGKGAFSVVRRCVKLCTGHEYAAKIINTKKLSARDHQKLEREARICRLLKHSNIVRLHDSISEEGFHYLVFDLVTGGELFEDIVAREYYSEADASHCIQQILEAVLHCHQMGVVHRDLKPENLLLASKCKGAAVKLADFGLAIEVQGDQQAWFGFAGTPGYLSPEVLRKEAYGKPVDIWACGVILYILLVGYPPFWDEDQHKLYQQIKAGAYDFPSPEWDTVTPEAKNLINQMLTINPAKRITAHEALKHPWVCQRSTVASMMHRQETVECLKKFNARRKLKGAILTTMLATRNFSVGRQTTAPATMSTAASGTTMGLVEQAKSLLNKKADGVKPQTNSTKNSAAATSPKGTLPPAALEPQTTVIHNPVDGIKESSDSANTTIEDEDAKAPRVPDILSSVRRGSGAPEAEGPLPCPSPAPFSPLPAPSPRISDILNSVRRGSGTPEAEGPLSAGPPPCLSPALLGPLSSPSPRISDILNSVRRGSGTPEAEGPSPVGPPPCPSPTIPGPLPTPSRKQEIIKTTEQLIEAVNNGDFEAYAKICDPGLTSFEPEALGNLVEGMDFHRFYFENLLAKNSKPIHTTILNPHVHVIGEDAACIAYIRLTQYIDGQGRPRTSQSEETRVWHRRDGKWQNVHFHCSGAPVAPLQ
T6 sequence (Q9NR20 whole entry): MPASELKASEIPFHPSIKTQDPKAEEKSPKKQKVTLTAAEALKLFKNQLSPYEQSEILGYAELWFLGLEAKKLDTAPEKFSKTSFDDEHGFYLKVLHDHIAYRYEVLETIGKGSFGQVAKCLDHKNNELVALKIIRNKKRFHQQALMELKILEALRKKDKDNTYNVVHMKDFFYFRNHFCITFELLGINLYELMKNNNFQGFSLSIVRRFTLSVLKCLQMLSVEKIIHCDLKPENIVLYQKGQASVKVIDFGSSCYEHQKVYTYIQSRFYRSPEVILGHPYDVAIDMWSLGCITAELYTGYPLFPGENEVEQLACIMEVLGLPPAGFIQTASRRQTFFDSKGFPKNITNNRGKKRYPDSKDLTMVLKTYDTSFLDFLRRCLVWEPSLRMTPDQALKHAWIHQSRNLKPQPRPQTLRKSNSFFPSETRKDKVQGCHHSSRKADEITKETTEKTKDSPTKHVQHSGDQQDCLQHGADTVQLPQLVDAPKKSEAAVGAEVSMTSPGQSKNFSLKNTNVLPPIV
T2 sequence (Q9BXA7 whole entry): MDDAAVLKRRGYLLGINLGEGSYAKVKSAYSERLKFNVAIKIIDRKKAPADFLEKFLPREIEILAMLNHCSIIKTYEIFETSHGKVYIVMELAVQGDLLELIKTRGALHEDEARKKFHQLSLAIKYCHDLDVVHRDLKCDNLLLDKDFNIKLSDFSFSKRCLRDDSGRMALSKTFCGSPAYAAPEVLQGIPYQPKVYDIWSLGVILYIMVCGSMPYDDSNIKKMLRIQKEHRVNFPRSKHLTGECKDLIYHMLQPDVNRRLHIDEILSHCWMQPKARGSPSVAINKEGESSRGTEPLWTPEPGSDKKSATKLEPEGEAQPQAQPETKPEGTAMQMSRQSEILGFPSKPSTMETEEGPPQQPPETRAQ
T10 sequence (Q13153 whole entry): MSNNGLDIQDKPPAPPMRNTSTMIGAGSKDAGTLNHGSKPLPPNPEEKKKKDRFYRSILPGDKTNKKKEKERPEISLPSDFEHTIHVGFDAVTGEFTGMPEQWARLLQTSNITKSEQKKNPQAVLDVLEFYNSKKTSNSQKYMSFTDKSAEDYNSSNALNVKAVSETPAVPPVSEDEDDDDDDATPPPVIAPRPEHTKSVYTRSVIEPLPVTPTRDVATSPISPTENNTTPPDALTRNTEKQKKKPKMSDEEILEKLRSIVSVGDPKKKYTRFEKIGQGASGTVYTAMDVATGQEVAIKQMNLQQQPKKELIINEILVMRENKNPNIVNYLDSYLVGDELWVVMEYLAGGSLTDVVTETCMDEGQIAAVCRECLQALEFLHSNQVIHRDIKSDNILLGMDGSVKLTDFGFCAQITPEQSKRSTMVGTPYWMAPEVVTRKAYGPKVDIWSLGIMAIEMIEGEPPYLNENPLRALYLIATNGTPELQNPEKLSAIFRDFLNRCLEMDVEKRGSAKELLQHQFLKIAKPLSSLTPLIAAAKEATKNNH

The IC50 is the concentration at which inhibition is half-maximal. One may read the inhibition as the drop in the measured response relative to a control, in per cent. On to `COc1cc(C(N)=O)nc(-c2cccc(C#C[C@]3(O)CCN(C)C3=O)c2)c1` [NIK SMI1], for which, in experiment [1], the “off-target kinases inhibited to an extent >75%” value was 3 out of 222. In addition, the figures for the IC50 (in the experiment with human B cells; in [2]; in experiment [5]) were greater than 10000 nM, 70 nM and 84.6 nM, respectively. In addition, the inhibition at 1 µM at PhK_gamma2 is -3%; against TSSK1, 61%; against Frk, 18%; on PKC_eta, 38%; against p70S6K, 9.5%; against DYRK4, 5.5%. Further, the inhibition at 1 µM on CK1_alpha1 was determined as 2%; on CaMKII_beta, 30.5%; against CSK, 12.5%; at PAK1, 9%. Besides, the “TWEAK-induced p52 processing” value in experiment [3] and in [4] was “significantly reduced” in each case.
